Test results as given in patent US9505716B2, “Pyrrolidine triple reuptake inhibitors” (SUNOVION PHARMACEUTICALS INC., priority 2009, dated 2016).

Experiments:
[1] = biological target: T1, recombinant human norepinephrine transporter expressed in either HEK293 or MDCK cells (Homo sapiens, UniProt P23975); assay: Norepinephrine functional uptake assay for human reuptake transporter; type: cell-based; settings: functional uptake of norepinephrine
T1 construct: expressed in transfected cells; host or cells: HEK293 or MDCK
Description: (§1) Compounds were initially tested at 10 μM in duplicate.
The cells were plated before the assay. Test compound and/or vehicle was preincubated with cells in modified HEPES buffer pH 7.1 or pH 7.4 for 20 minutes at 18 to 25° C. […] After the cells were washed to remove [^3H]norepinephrine not internalized, the cells were lysed, and the amount of tritium in the cell lysate was measured using a liquid scintillation counter to determine [^3H]norepinephrine uptake. Non-specific binding of tritium was measured in a control reaction containing […] (or […]), and was subtracted from the counts for assays to correct for non-specific binding of tritium. Reduction of [^3H]norepinephrine uptake by 50 percent or more (≧50%) relative to an uninhibited control reaction indicates significant inhibitory activity.

[2] = biological target: T2, recombinant human serotonin transporter expressed in HEK-293 cells (Homo sapiens, UniProt P31645); assay: Serotonin functional uptake assay for human reuptake transporter; type: cell-based; settings: functional uptake of serotonin; read-out: hSERT (IC50 nM)
T2 construct: expressed in transfected cells; host or cells: HEK-293
Description: as §1
HEK-293 cells expressing human serotonin transporter were plated before the assay. […] Cells with internalized [^3H]serotonin were washed and the amount of tritium taken into cells is counted using a liquid scintillation counter to determine [^3H]serotonin uptake. Non-specific binding of tritium was measured in a control reaction containing […], and was subtracted from the counts for assays to correct for non-specific binding of tritium. Reduction of [^3H]serotonin uptake by 50 percent or more (≧50%) relative to an uninhibited control reaction indicates significant inhibitory activity.

[3] = biological target: T3, recombinant human dopamine transporter expressed in either CHO-K1 or HEK293 cells (Homo sapiens, UniProt Q01959); assay: Dopamine functional uptake assay for human reuptake transporter; type: cell-based; settings: functional uptake of dopamine
T3 construct: expressed in transfected cells; host or cells: CHO-K1 or HEK293
Description: as §1
Either CHO-K1 or HEK293 cells expressing human recombinant dopamine transporter were plated before the assay. Test compound and/or vehicle was preincubated with cells in modified HEPES buffer pH 7.1 or pH 7.4 for 20 minutes at 18 to 25° C. and 50 nM [^3H]dopamine was then added for an additional timed incubation period (10 to 30 minutes). After washing the cells to remove [^3H]dopamine not internalized, the cells were lysed, and the amount of tritium in the lysate was measured using a liquid scintillation counter to determine [^3H]dopamine uptake. Non-specific binding of tritium was measured in a control reaction containing 10 μM nomifensine, and was subtracted from the counts for assays to correct for non-specific binding of tritium. Reduction of [^3H]dopamine uptake by 50 percent or more (≧50%) relative to an uninhibited control reaction indicates significant inhibitory activity.

serotonin uptake sites = serotonin uptake sites (Homo sapiens, UniProt P31645); settings: compared with the racemic compound; cited from earlier work
[4] = in vivo; cited from earlier work

T1 sequence (P23975 whole entry): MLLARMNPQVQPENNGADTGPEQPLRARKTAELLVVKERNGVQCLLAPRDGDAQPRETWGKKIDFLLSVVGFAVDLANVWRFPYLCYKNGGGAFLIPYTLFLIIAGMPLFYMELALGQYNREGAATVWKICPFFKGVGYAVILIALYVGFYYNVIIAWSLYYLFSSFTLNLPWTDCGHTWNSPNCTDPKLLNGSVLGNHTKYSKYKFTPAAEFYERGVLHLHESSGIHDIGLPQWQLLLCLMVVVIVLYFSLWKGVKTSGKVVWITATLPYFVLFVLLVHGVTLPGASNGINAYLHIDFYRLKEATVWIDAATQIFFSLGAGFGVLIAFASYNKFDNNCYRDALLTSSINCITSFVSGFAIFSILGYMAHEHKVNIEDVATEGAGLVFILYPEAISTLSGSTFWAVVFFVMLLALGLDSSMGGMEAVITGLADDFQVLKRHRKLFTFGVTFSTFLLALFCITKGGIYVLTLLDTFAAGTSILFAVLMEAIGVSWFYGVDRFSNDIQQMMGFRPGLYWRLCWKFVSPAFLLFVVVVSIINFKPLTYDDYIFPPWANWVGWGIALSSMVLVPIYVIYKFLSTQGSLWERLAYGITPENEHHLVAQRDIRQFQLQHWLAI
T2 sequence (P31645 whole entry): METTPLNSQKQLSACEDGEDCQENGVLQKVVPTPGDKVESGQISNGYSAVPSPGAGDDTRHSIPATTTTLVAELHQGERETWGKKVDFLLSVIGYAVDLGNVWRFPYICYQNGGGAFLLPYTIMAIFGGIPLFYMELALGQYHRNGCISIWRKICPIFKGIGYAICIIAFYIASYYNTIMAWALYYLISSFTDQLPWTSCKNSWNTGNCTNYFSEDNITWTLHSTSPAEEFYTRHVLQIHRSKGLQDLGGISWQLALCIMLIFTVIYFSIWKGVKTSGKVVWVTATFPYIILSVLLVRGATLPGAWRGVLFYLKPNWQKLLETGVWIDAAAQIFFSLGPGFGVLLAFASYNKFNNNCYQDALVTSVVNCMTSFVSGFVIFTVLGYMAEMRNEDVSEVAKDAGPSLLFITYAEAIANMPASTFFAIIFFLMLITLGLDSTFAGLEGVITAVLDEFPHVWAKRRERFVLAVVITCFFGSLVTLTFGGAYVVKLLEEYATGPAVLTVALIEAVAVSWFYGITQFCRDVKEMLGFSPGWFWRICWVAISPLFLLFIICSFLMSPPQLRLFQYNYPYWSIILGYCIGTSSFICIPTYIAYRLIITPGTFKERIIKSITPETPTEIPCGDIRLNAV
T3 sequence (Q01959 whole entry): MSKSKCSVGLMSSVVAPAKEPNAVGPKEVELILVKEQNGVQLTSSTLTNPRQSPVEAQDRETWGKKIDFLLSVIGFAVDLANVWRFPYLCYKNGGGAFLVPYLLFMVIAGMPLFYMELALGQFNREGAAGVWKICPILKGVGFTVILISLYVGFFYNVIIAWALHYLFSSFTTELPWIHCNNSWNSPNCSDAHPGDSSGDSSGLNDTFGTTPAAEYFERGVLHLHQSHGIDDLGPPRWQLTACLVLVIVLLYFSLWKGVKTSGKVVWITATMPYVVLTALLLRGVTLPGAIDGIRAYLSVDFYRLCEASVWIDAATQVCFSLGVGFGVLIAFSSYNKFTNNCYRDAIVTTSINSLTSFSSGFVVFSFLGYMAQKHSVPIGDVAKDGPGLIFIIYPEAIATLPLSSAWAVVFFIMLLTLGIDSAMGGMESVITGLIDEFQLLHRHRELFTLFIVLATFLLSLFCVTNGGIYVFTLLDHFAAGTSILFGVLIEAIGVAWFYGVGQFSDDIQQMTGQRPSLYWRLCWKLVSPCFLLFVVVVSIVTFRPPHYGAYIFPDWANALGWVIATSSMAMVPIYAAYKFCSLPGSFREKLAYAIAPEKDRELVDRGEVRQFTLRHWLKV
serotonin uptake sites, sequence (P31645 whole entry): as the sequence (P31645 whole entry) above

| Compound | hNET (IC50 nM) [1] | IC50 [2] | hDAT (IC50 nM) [3] | affinity for the serotonin uptake sites (serotonin uptake sites) | immobility in the tail suspension test [4] |
| --- | --- | --- | --- | --- | --- |
| Clc1ccc(C2(C3CCNC3)CCCCC2)cc1Cl (single isomer, unassigned) [Compound 1] | +++ (IC50 < 10 nM) | < 1 nM | ++ (IC50 ≦ 100 nM) |  |  |
| Clc1ccc(C2(C3CCNC3)CCCCC2)cc1Cl (single isomer, unassigned) [Compound 2] | ++ (IC50 ≦ 100 nM) | < 100 nM | ++ (IC50 ≦ 100 nM) |  |  |
| Clc1ccc(C2(C3CCNC3)CCCC2)cc1Cl (single isomer, unassigned) [Compound 5] | ++ (IC50 ≦ 100 nM) | < 100 nM | ++ (IC50 ≦ 100 nM) |  |  |
| Clc1ccc(C2(C3CCNC3)CCCC2)cc1Cl (single isomer, unassigned) [Compound 6] | ++ (IC50 ≦ 100 nM) | < 10 nM | ++ (IC50 ≦ 100 nM) |  |  |
| Clc1ccc(C2(C3CCNC3)CCC2)cc1Cl (single isomer, unassigned) [Compound 7] | ++ (IC50 ≦ 100 nM) | < 100 nM | +++ (IC50 < 10 nM) |  |  |
| Clc1ccc(C2(C3CCNC3)CCC2)cc1Cl (single isomer, unassigned) [Compound 8] | ++ (IC50 ≦ 100 nM) | < 100 nM | ++ (IC50 ≦ 100 nM) |  |  |
| c1ccc2cc(C3(C4CCNC4)CCCCC3)ccc2c1 (single isomer, unassigned) [Compound 9] | + (100 nM < IC50 ≦ 500 nM) | < 10 nM | ++ (IC50 ≦ 100 nM) |  |  |
| c1ccc2cc(C3(C4CCNC4)CCCCC3)ccc2c1 (single isomer, unassigned) [Compound 10] | ++ (IC50 ≦ 100 nM) | < 1 nM | ++ (IC50 ≦ 100 nM) |  |  |
| c1ccc2cc(C3(C4CCNC4)CCCC3)ccc2c1 (single isomer, unassigned) [Compound 11] | +++ (IC50 < 10 nM) | < 1 nM | +++ (IC50 < 10 nM) |  |  |
| c1ccc2cc(C3(C4CCNC4)CCCC3)ccc2c1 (single isomer, unassigned) [Compound 12] | ++++ (IC50 < 1 nM) | < 1 nM | ++ (IC50 ≦ 100 nM) |  |  |
| c1ccc2cc(C3(C4CCNC4)CCC3)ccc2c1 (single isomer, unassigned) [Compound 13] | ++ (IC50 ≦ 100 nM) | < 100 nM | ++ (IC50 ≦ 100 nM) |  |  |
| c1ccc2cc(C3(C4CCNC4)CCC3)ccc2c1 (single isomer, unassigned) [Compound 14] | ++ (IC50 ≦ 100 nM) | < 10 nM | ++ (IC50 ≦ 100 nM) |  |  |
| Clc1ccc([C@@]23CNC[C@@H]2C3)cc1Cl (single isomer, unassigned) [DOV 21,947, (+)-1-(3,4-dichlorophenyl)-3-azabicyclo[3.1.0]hexane] |  |  |  | significantly greater affinity | dose-dependent reduction in immobility |
| CN1CCC(C2(c3ccc(Cl)c(Cl)c3)CCCCC2)C1 (centres unmarked) [Compound 3] | + (100 nM < IC50 ≦ 500 nM) | 100 to 500 nM | ++ (IC50 ≦ 100 nM) |  |  |
| CN1CCC(C2(c3ccc(Cl)c(Cl)c3)CCCCC2)C1 (centres unmarked) [Compound 4] | − (IC50 > 500 nM) | > 500 nM | +++ (IC50 < 10 nM) |  |  |
| Clc1ccc(C2(C3CCNC3)CCOCC2)cc1Cl (centres unmarked) [Compound 15] | ++ (IC50 ≦ 100 nM) | < 100 nM | ++ (IC50 ≦ 100 nM) |  |  |

| Compound | hNET (IC50 nM) [1] | IC50 [2] | hDAT (IC50 nM) [3] | affinity for the serotonin uptake sites (serotonin uptake sites) | immobility in the tail suspension test [4] |
| --- | --- | --- | --- | --- | --- |
| Clc1ccc(C2(C3CCNC3)CCOCC2)cc1Cl (centres unmarked) [Compound 16] | +++ (IC50 < 10 nM) | < 10 nM | +++ (IC50 < 10 nM) |  |  |
| C[C@]1(O)CC[C@@](c2ccc(Cl)c(Cl)c2)([C@H]2CCNC2)CC1 [Compound 17] | +++ (IC50 < 10 nM) | < 10 nM | ++ (IC50 ≦ 100 nM) |  |  |
| C[C@]1(O)CC[C@@](c2ccc(Cl)c(Cl)c2)([C@@H]2CCNC2)CC1 [Compound 18] | +++ (IC50 < 10 nM) | < 10 nM | ++ (IC50 ≦ 100 nM) |  |  |
| C[C@]1(O)CC[C@](c2ccc(Cl)c(Cl)c2)([C@@H]2CCNC2)CC1 [Compound 19] | ++ (IC50 ≦ 100 nM) | < 10 nM | +++ (IC50 < 10 nM) |  |  |
| C[C@]1(O)CC[C@](c2ccc(Cl)c(Cl)c2)([C@H]2CCNC2)CC1 [Compound 20] | ++ (IC50 ≦ 100 nM) | < 10 nM | +++ (IC50 < 10 nM) |  |  |
| O[C@H]1CC[C@@](c2ccc(Cl)c(Cl)c2)([C@H]2CCNC2)CC1 [Compound 21] | +++ (IC50 < 10 nM) | < 10 nM | ++ (IC50 ≦ 100 nM) |  |  |
| O[C@H]1CC[C@@](c2ccc(Cl)c(Cl)c2)([C@@H]2CCNC2)CC1 [Compound 22] | +++ (IC50 < 10 nM) | < 10 nM | +++ (IC50 < 10 nM) |  |  |
| O[C@H]1CC[C@](c2ccc(Cl)c(Cl)c2)([C@H]2CCNC2)CC1 [Compound 23] | +++ (IC50 < 10 nM) | < 10 nM | +++ (IC50 < 10 nM) |  |  |
| O[C@H]1CC[C@](c2ccc(Cl)c(Cl)c2)([C@@H]2CCNC2)CC1 [Compound 24] | ++++ (IC50 < 1 nM) | < 1 nM | +++ (IC50 < 10 nM) |  |  |
| CO[C@]1(C)CC[C@](c2ccc(Cl)c(Cl)c2)([C@H]2CCNC2)CC1 [Compound 25] | ++ (IC50 ≦ 100 nM) | < 10 nM | +++ (IC50 < 10 nM) |  |  |
| CO[C@]1(C)CC[C@](c2ccc(Cl)c(Cl)c2)([C@@H]2CCNC2)CC1 [Compound 26] | +++ (IC50 < 10 nM) | < 100 nM | +++ (IC50 < 10 nM) |  |  |
| CO[C@]1(C)CC[C@@](c2ccc(Cl)c(Cl)c2)([C@@H]2CCNC2)CC1 [Compound 27] | +++ (IC50 < 10 nM) | < 10 nM | ++ (IC50 ≦ 100 nM) |  |  |
| CO[C@]1(C)CC[C@@](c2ccc(Cl)c(Cl)c2)([C@H]2CCNC2)CC1 [Compound 28] | +++ (IC50 < 10 nM) | < 100 nM | ++ (IC50 ≦ 100 nM) |  |  |
| O[C@@]1(C2(c3ccc(Cl)c(Cl)c3)CCCC2)CCNC1 [Compound 29] | +++ (IC50 < 10 nM) | < 10 nM | ++ (IC50 ≦ 100 nM) |  |  |
| O[C@]1(C2(c3ccc(Cl)c(Cl)c3)CCCC2)CCNC1 [Compound 30] | ++ (IC50 ≦ 100 nM) | < 100 nM | ++ (IC50 ≦ 100 nM) |  |  |
